Reference: publication PMC10578352, “Identification of a Protein Arginine Methyltransferase 7 (PRMT7)/Protein Arginine Methyltransferase 9 (PRMT9) Inhibitor” (Journal of Medicinal Chemistry, 2023)

Target: T1, human recombinant PRMT9 (Homo sapiens, UniProt Q6P2P2)
T1 construct: human recombinant PRMT9 (2–845; N-terminal FLAG-tag, C-terminal His6-tag); FLAG (N); His6 (C); purchased BPS BioScience 79124
T1 sequence (Q6P2P2 2-845): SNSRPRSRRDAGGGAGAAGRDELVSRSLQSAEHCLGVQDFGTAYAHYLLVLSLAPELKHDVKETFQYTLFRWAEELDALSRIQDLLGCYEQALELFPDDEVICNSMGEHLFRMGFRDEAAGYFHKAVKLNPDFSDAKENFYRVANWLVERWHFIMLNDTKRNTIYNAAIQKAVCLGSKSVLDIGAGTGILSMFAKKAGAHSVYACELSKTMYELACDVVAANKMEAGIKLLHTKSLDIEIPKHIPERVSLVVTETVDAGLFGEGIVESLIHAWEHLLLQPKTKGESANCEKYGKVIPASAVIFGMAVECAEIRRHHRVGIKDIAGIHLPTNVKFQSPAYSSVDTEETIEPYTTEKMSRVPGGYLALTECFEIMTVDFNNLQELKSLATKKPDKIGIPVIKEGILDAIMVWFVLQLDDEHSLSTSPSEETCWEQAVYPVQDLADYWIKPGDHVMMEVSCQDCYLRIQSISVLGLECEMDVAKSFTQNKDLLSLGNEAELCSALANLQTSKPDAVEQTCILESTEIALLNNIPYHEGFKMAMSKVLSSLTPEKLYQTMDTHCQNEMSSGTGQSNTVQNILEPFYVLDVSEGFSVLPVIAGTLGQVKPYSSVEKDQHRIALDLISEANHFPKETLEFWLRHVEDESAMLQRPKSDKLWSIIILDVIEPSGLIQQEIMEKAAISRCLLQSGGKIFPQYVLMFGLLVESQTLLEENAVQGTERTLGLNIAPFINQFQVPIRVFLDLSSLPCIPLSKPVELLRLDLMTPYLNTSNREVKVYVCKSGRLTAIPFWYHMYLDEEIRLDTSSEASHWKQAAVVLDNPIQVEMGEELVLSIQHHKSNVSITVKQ
Assay: SPR binding to immobilized PRMT9
Conditions: 1:1 Langmuir model, 25 °C
Method: To characterize the effect of compound 1j on PRMT9, we resolved to evaluate its direct binding to the target protein using surface plasmon resonance (SPR). To this aim, human recombinant PRMT9 (2–845; N-terminal FLAG-tag, C-terminal His6-tag) was covalently immobilized on a sensor chip surface using an amine coupling approach and compound 1j was injected over the active and reference cells at 10 different concentrations (2-fold dilution series) from 25 to 0.05 μM using the multicycle modality. Each injection was performed with an association and a dissociation time of 90 and 180 s, respectively, and with a flow rate of 30 μL/min. To reduce false positives from detergent-sensitive, nonspecific aggregation-based binding, detergents (0.05% Tween20) were added to the running buffer in all experiments. The corrected sensorgrams were fitted simultaneously by kinetic analysis using the 1:1 Langmuir model of the BIAevaluation software to obtain equilibrium dissociation constants (KD) and kinetic dissociation (koff) and association (kon) constants, and the curve-fitting efficiency was evaluated by chi-square (χ^2). The χ^2 value of 1j was calculated to be 0.650, indicating a good fit.
SPR experiments were performed on a Biacore T200 biosensor (Cytiva). […] The curve-fitting efficiency was evaluated by the chi-square (χ^2). […]

## COC(=O)c1cc(O)c2cc(NC(=O)NCCCNC(=N)NC[C@H]3O[C@@H](n4cnc5c(N)ncnc54)[C@H](O)[C@@H]3O)cc(C(F)(F)F)c2c1 [1j, Methyl 6-(3-(3-(3-(((2R,3S,4R,5R)-5-(6-Amino-9H-purin-9-yl)-3,4-dihydroxytetrahydrofuran-2-yl)methyl)guanidino)propyl)ureido)-4-hydroxy-8-(trifluoromethyl)-2-naphthoate]
  PRMT9 SPR residence time (τR = 1/koff): 500 s
KD = koff/kon
  Kd: 0.188 µM
